Data as given in patent US9232799B2, “N-[(het)arylethyl)] pyrazole(thio)carboxamides and their heterosubstituted analogues” (BAYER INTELLECTUAL PROPERTY GMBH, priority 2010, dated 2016).

How the values were obtained:
Fusarium graminearum = experiment: microbe, parasite or virus in culture; assay type: cell-based; details: 50 μM
Pyrenophora teres = experiment: In vivo preventive test on Pyrenophora teres (barley); details: 500 ppm of active ingredient, evaluated 7-9 days after inoculation
Excerpt: One day after this treatment, the plants are inoculated with an aqueous spore suspension of Pyrenophora teres.

Alternaria solani = experiment: In vivo preventive test on Alternaria solani (tomato); details: 500 ppm of active ingredient, evaluated 7 days after inoculation
Excerpt: One day after this treatment, the plants are inoculated with an aqueous spore suspension of Alternaria solani.

[1] = logP by HPLC on reversed-phase column (C 18), EEC Directive 79/831 Annex V.A8; assay type: physicochemical
Experimental: In table 1, the logP values were determined in accordance with EEC Directive 79/831 Annex V.A8 by HPLC (High Performance Liquid Chromatography) on a reversed-phase column (C 18), using the method described below: Temperature: 40° C.; […]

aflatoxines production = experiment: microbe, parasite or virus in culture; assay type: cell-based, Aspergillus parasiticus; details: 50 μM

SMILES	% Inhibition of fungal growth at 50 μM (Fusarium graminearum) [%]	Efficacy (Pyrenophora teres) [%]	Efficacy (Alternaria solani) [%]	logP [1]	% Inhibition of Aflatoxin at 50 μM (aflatoxines production) [%]
Cn1nc(C(F)F)c(C(=O)NCCc2c(Cl)cccc2Cl)c1Cl [Example 118]	81	94	90	3.21	100
Cn1nc(C(F)F)c(C(=O)NCCc2ccccc2Cl)c1F [Example 32]	99	100	95	2.69	100
CC(CNC(=O)c1c(C(F)F)nn(C)c1F)c1c(F)cccc1F (stereo not shown) [Example 30]	98	100	100	2.78	100
CC(CNC(=O)c1c(C(F)F)nn(C)c1F)c1cccc(Cl)c1 (stereo not shown) [Example 51]	100	100	100	3.02	100
CC(CNC(=O)c1c(C(F)F)nn(C)c1Cl)c1cccc(Cl)c1 (stereo not shown) [Example 52]	83	100	100	3.21	100
CN(CCc1ccccc1Cl)C(=O)c1c(C(F)F)nn(C)c1F [Example 35]	100	100	100	2.76	100
Cn1nc(C(F)F)c(C(=O)NCCc2c(F)c(F)nc(F)c2F)c1F [Example 208]	100	100	95	2.44	99
Cn1nc(C(F)F)c(C(=O)NCCc2cccc(Cl)c2)c1Cl [Example 49]	91	94	100	2.92	100
Cc1c(CCNC(=O)c2c(C(F)F)nn(C)c2F)sc2ccccc12 [Example 171]	93	100	100	3.27	100
CC(CNC(=O)c1c(C(F)F)nn(C)c1Cl)c1ccccc1Cl (stereo not shown) [Example 40]	78	94	100	3.15	99
CC(CNC(=O)c1c(C(F)F)nn(C)c1F)c1cc(Cl)ccc1Cl (stereo not shown) [Example 97]	100	100	95	3.35	100
Cn1nc(C(F)F)c(C(=O)NCCc2c(Cl)cccc2Cl)c1F [Example 117]	100	100	95	3.00	100
Cn1nc(C(F)F)c(C(=O)NCCc2csc3c2CCCC3)c1Cl [Example 169]	75	100	80	3.52	91
Cn1nc(C(F)F)c(C(=O)NCCc2ccccc2Cl)c1Cl [Example 34]	84	100	100	2.88	100
CC(CNC(=O)c1c(C(F)F)nn(C)c1F)c1cccc(C(F)(F)F)c1 (stereo not shown) [Example 126]	98	100	90	3.23	100
Cn1nc(C(F)F)c(C(=O)N(C[Si](C)(C)c2ccsc2)C2CC2)c1Cl [Example 247]	100	100	94	3.71	100
Cn1nc(C(F)F)c(C(=O)NCCc2ncc(C(F)(F)F)cc2Cl)c1Cl [Example 191]	100	100	94	2.97	100
CC(CNC(=O)c1c(C(F)F)nn(C)c1F)c1ccccc1Cl (stereo not shown) [Example 39]	100	100	100	2.94	100
Cc1cc(C)c(CCN(C)C(=O)c2c(C(F)F)nn(C)c2F)c(C)c1 [Example 135]	96	95	95	3.48	100

SMILES	% Inhibition of fungal growth at 50 μM (Fusarium graminearum) [%]	Efficacy (Pyrenophora teres) [%]	Efficacy (Alternaria solani) [%]	logP [1]	% Inhibition of Aflatoxin at 50 μM (aflatoxines production) [%]
Cn1nc(C(F)F)c(C(=O)NCCc2cc(Cl)ccc2Cl)c1F [Example 90]	100	100	95	3.11	100
CC(CNC(=O)c1c(C(F)F)nn(C)c1F)c1ccc(Cl)cc1Cl (stereo not shown) [Example 84]	100	100	95	3.46	100
CN(CCc1ccccc1C(F)(F)F)C(=O)c1c(C(F)F)nn(C)c1F [Example 123]	100	95	100	3.00	100
CC(C)C(CNC(=O)c1c(C(F)F)nn(C)c1Cl)c1ccc(Cl)cc1 (stereo not shown) [Example 59]	83	100	100	3.94	100
Cn1nc(C(F)F)c(C(=O)NCCc2cccc(Cl)c2)c1F [Example 47]	100	100	100	2.75	100
CC(Cc1cccc(Oc2ccccc2)c1)NC(=O)c1c(C(F)F)nn(C)c1F (stereo not shown) [Example 146]	83	100	95	3.64	100
CC(c1ccccc1Cl)C(C)N(C(=O)c1c(C(F)F)nn(C)c1Cl)C1CC1 (stereo not shown) [Example 42]	84	100	80	4.08	100
Cn1nc(C(F)F)c(C(=O)NCCc2ccsc2Br)c1Cl [Example 165]	81	95	90	2.82	99
Cc1cccnc1CC(NC(=O)c1c(C(F)F)nn(C)c1F)C(F)(F)F (stereo not shown) [Example 185]	87	94	95	1.52	100
CC(CNC(=O)c1c(C(F)F)nn(C)c1Cl)c1ccc(C(F)(F)F)cc1 (stereo not shown) [Example 128]	82	94	100	3.39	100
Cn1nc(C(F)F)c(C(=O)NCC(C)(C)c2cc(Cl)ccc2Cl)c1F [Example 100]	85	94	95	3.68	99
Cn1nc(C(F)F)c(C(=O)NCCc2ccc(Oc3ccccc3)cc2)c1F [Example 152]	82	100	95	3.41	100
CC(CN(C(=O)c1c(C(F)F)nn(C)c1Cl)C1CC1)c1ccccc1 (stereo not shown) [Example 14]	100	100	100	3.31	100
CN(CCc1ccc(C(C)(C)C)cc1)C(=O)c1c(C(F)F)nn(C)c1F [Example 138]	80	95	100	3.78	100
CN(CCc1ccccc1C(F)(F)F)C(=O)c1c(C(F)F)nn(C)c1Cl [Example 124]	87	95	100	3.13	100
Cc1ccsc1CCNC(=O)c1c(C(F)F)nn(C)c1F [Example 164]	95	100	95	2.49	100
Cn1nc(C(F)F)c(C(=O)NCCc2cc(Cl)cc(Cl)c2)c1Cl [Example 105]	95	94	95	3.42	100
Cn1nc(C(F)F)c(C(=O)NC[Si](C)(C)c2cc(Cl)cc(Cl)c2)c1Cl [Example 243]	84	100	95	4.27	99
CC(CNC(=O)c1c(C(F)F)nn(C)c1Cl)c1c(F)cccc1F (stereo not shown) [Example 29]	82	100	100	2.92	100
